The numbers were not newly measured in publication PMC7156367, “Cell surface processing of the P1 adhesin of Mycoplasma pneumoniae identifies novel domains that bind host molecules” (Scientific Reports, 2020), which cites them from elsewhere.

On the set-up of the data set: method as in PMID 28894125. The note with it: ref [12]; cited from earlier work.

As to elongation factor Tu [Ef-Tu], the affinity to heparin entry is reported as “strong affinity to heparin”.
